Measured values taken from US10285956B2, “N-(2-aminoethyl) ethanolamine (AEEA) and analogs to treat hypertrophic scarring and liposomal topical delivery” (BOARD OF REGENTS, THE UNIVERSITY OF TEXAS SYSTEM, priority 2016, dated 2019).

How the values were obtained:
[1] = Rat model of 30% scald burn, localized injections, adverse effect on skin or burn wound healing; type: in vivo
Method: To assess the possibility of an adverse AEEA effect on skin or burn wound healing, a rat model of 30% scald burn was utilized. AEEA was used to treat burns (or unburned skin as sham) by localized multiple injections (5 of 0.1 ml) of AEEA at 5.0 and 50.0 mM concentrations, which are 100- or 1,000-fold of the effective concentration in our cell culture, respectively, but is only 10% concentration of the rat DAA experiments by gavage.

α-SMA = α-SMA Western blot in normal (N) and HS skin fibroblasts; type: cell-based, human
Excerpt: GAPDH is loading control. […] GAPDH is loading control. […] The effects of AEEA on collagen and other extra-cellular protein abundances can be further evaluated by using the normal human neonatal primary dermal fibroblast (ATCC® PCS-201-010™), and normal skin fibroblasts (NS Fb), and also hypertrophic scar fibroblasts (HS Fb) derived from skin of the other clinically evident HS developed by patients. Time course and dose response studies can also be used to test the effects of AEEA on stability of those proteins, by Western blotting, to see if it is degraded more quickly in the AEEA treated cells. For Western Blot, cultured N Fb and FS Fb grown and treated with AEEA as described above can be gently washed with 4° C. pre-chilled PBS. The plate is then placed on the surface of a −20° C. ice block. […] Therefore, samples are serially extracted with RIPA buffer, urea extraction buffer and then 0.5 M acetic acid; or, with native sample buffer, as described above. […] The protein concentrations of the samples extracted with RIPA measured by with the DC™ protein assay kit (Bio-Rad Laboratories, Inc. USA), while the protein of remaining extracts is quantitated with the BCA protein assay (Pierce). […] Signals are recorded on film (CL-XPousure™ film, Thermo Scientific) by using ECL™ Western blot detection reagents (Amersham Biosciences, RPN2209).

skin fibroblasts = assay: Scanning EM of interstitial matrix (skin fibroblasts removed); type: cell-based, human; details: AEEA 5, 10 mM, cells removed
Method: Briefly, fibroblast-like cells are cultured on 13 mm diameter Nunc™ Thermanox™ Coverslips (Catalog #174950) in 24-well cell culture plates in DMEM supplemented with 13% FCS, antibiotics, and 50 μg/ml of sodium ascorbate; cells are seeded at the number that cell density reaches 70% confluence in 24 hours. AEEA treatments start before the formation of ECM, at the second day post passage. Sodium ascorbate, which is the crucial cofactor of lysyl oxidase (LOX), lysyl hydroxylase, and proline hydroxylase (to be assayed), is added daily, 5 days/week, to stimulate ECM assembly. AEEA is changed with culture media (every 3 days). […] After 14 days of culture, the resulting tissue sheets are gently rinsed twice with PBS, and then incubated in sterile deionized water for 20 minutes at 4° C. to lyse the cells with hypotonic condition (decellularization). Matrix is rinsed free of cell debris, and ECM samples are kept overnight at 4° C.

N-Cadherin = assay: Extractable N-Cadherin, denaturing gel, HS cells; type: cell-based, human; details: especially with both AEEA and TGFβ1
Excerpt: (§1) In the native gel, intensities of integrin bands are not changed in a parallel fashion to that in denaturing gels, which may be the result of intramolecular alterations.
(§2) […] In FIG. 6, the effect of AEEA on fibronectin, integrins αV and β5, and N-cadherin is examined, which have all been implicated in the development of HS. In a denaturing gel, TGFβ1 and AEEA exposure has a similar effect of increasing extractability of integrins and, to some extent, N-cadherin. […] Most interesting are interactions between AEEA and TGFβ1 with regard to HS cell expression of fibronectin, a critical molecule in cell adhesion, growth, migration, and differentiation, which is implicated in HS.

[2] = in utero exposure; cited from earlier work
Integrins αV and β5 = Integrins αV and β5 extractability, denaturing gel, HS cells; type: cell-based, human
Excerpt: as §1, §2

fibronectin = assay: Fibronectin extractability, denaturing gel following digitonin, HS cells; type: cell-based, human
Method: Increased extractability of fibronectin induced by TGFβ1, with little effect of AEEA at 25 or 50 μM. However, the TGFβ1 enhancement of fibronectin is blocked by 50 μM AEEA (last two lanes). Fibronectin, a critical cell adhesion molecule, is implicated in HS. […] See text for densitometric analysis, FIGS. 3-7.

collagen type 1 = assay: Collagen type 1 extractability, sequential denaturing ECM extraction (RIPA then urea), Western blot densitometry; type: cell-based, human; details: for increased extractability of collagen type 1 (by densitometry): 14 day exposure, HS fibroblasts, urea lysis buffer
Method: Preparation of Decellularized Matrix Scaffold, or Extracellular Matrix (ECM): The methods for isolation and characterization of the matrix of skin cells (fibroblastic-type cells) derived from normal (N Fb) and those derived from hypertrophic scar (HS Fb), as well as an embryonic fibroblast (E Fb) as a further control for comparison by the present inventors; these basic methods can be followed in the characterization of mechanism(s) of HS. Briefly, fibroblast-like cells are cultured on 13 mm diameter Nunc™ Thermanox™ Coverslips (Catalog #174950) in 24-well cell culture plates in DMEM supplemented with 13% FCS, antibiotics, and 50 μg/ml of sodium ascorbate; cells are seeded at the number that cell density reaches 70% confluence in 24 hours. AEEA treatments start before the formation of ECM, at the second day post passage. Sodium ascorbate, which is the crucial cofactor of lysyl oxidase (LOX), lysyl hydroxylase, and proline hydroxylase (to be assayed), is added daily, 5 days/week, to stimulate ECM assembly. AEEA is changed with culture media (every 3 days). […] The next day, water is replaced with PBS, and the preparation is ready for AFM, or other biochemical, molecular or proteomic studies as described below. […]
Total collagen content of the matrix can be determined by established extraction procedures and a dye-binding method based on the specific binding of Sirius Red dye to the [Gly-X-Y]n helical structure of collagen types I to XIV. […] Elastin can be determined in separate samples as soluble tropoelastin utilizing a dye binding assay (Accurate Chemical Corp., Westbury, N.Y.) and as insoluble elastin by repeated salt and alkali extraction as previously described. The effects of AEEA on collagen and other extra-cellular protein abundances can be further evaluated by using the normal human neonatal primary dermal fibroblast (ATCC® PCS-201-010™), and normal skin fibroblasts (NS Fb), and also hypertrophic scar fibroblasts (HS Fb) derived from skin of the other clinically evident HS developed by patients. […]

triple helical collagen = assay: Native (non-denaturing) gel of collagen tertiary structure (triple helix) in HS cells; type: cell-based, human; details: for TGFβ1 effect: increase in triple helical collagen: TGFβ1 exposure last 4 days
Method: Native lysis buffer uses digitonin; see text. […] TGFβ1 treatment (4 days) increases mature (triple helical) structure, while changing monomer ratio, an effect that is mimicked by AEEA-alone at 25 μM but not at 50 μM (see text and FIG. 7 re: fibronectin). TGFβ1 effect appears attenuated by 50 μM AEEA.
PGK1/2 is fraction marker. […] These collagen aberrations were then examined with non-denaturing, or “native” gels (FIG. 5). “Native” or “non-denaturing” gel electrophoresis is run in non-denaturing conditions, i.e., in the absence of any charged denaturing agents, such as SDS; and reducing agent. Native gel allows for the protein's natural structure to be maintained. Thus, the physical size of the folded or assembled complex affects mobility. In SDS-PAGE, the electrophoretic mobility of proteins depends primarily on their molecular mass alone; in native gel the mobility also depends on both the protein's charge and its hydrodynamic size. The native lysis buffer used contains: 50 mM Tris-HCl, pH 7.5; 150 mM NaCl and 1% Digitonin.
However this finding is not present at 50 μM AEEA. Following 25 μM AEEA alone, a 6-fold increase was seen. The triple helical structure in the presence of both AEEA and TGFβ1 appeared relatively diminished.
Total collagen content of the matrix can be determined by established extraction procedures and a dye-binding method based on the specific binding of Sirius Red dye to the [Gly-X-Y]n helical structure of collagen types I to XIV. The method has virtually an exact correlation with analytic methods for hydroxyproline content. Elastin can be determined in separate samples as soluble tropoelastin utilizing a dye binding assay (Accurate Chemical Corp., Westbury, N.Y.) and as insoluble elastin by repeated salt and alkali extraction as previously described. The effects of AEEA on collagen and other extra-cellular protein abundances can be further evaluated by using the normal human neonatal primary dermal fibroblast (ATCC® PCS-201-010™), and normal skin fibroblasts (NS Fb), and also hypertrophic scar fibroblasts (HS Fb) derived from skin of the other clinically evident HS developed by patients. Time course and dose response studies can also be used to test the effects of AEEA on stability of those proteins, by Western blotting, to see if it is degraded more quickly in the AEEA treated cells. For Western Blot, cultured N Fb and FS Fb grown and treated with AEEA as described above can be gently washed with 4° C. pre-chilled PBS. The plate is then placed on the surface of a −20° C. ice block. […] The protein concentrations of the samples extracted with RIPA measured by with the DC™ protein assay kit (Bio-Rad Laboratories, Inc. USA), while the protein of remaining extracts is quantitated with the BCA protein assay (Pierce). […]

| Compound | localized skin or systemic effects ([1]; 5 injections of 0.1 ml at 5.0 and 50.0 mM, burns or unburned skin) | histology, AEEA sites vs vehicle (PBS buffer) sites ([1]; normal unburned skin or full thickness burns, 7 days post-burn) | α-SMA expression (α-SMA; 1-10 mM AEEA, 14 days, normal (N) and HS skin fibroblasts) | α-SMA expression (α-SMA; low (μM) AEEA doses, 14 day exposure, HS fibroblasts) | appearance of interstitial matrix by SEM (skin fibroblasts) | Extractable N-Cadherin (N-Cadherin) | finding in rat pups born to mother rats exposed in utero [2] | effect on Integrins αV and β5 (extractability) (Integrins αV and β5) | TGFβ1 enhancement of fibronectin in presence of AEEA (fibronectin; 50 μM AEEA plus TGFβ1, HS cells) | effect on extractability of fibronectin (fibronectin; AEEA at 25 or 50 μM alone, HS cells) | increased extractability of collagen type 1 (by densitometry) (collagen type 1; 25 μM AEEA) [fold] | increased extractability of collagen type 1 (by densitometry) (collagen type 1; 100 μM AEEA) [fold] | increase of Collagen I extractability, densitometrically (collagen type 1; human burn wound fibroblasts (from HS) cultured in 50 μM compound) [fold] | increase in triple helical collagen (triple helical collagen; 25 μM AEEA alone, 7 days, native gel) [fold] | TGFβ1 effect on triple helical collagen in presence of AEEA (triple helical collagen; 50 μM AEEA plus TGFβ1, 7 days) | increased extractability of fibronectin (fibronectin; TGFβ1 alone, denaturing gel, HS cells) [fold] | TGFβ1 effect: increase in triple helical collagen (triple helical collagen; 0.0 (control) AEEA, 7 days) [fold] | TGFβ1 effect: increase in triple helical collagen (triple helical collagen; with 25 μM AEEA, 7 days) [fold] |
| --- | --- | --- | --- | --- | --- | --- | --- | --- | --- | --- | --- | --- | --- | --- | --- | --- | --- | --- |
| NCCNCCO [AEEA, N-(2-aminoethyl) ethanolamine] | no untoward localized skin or systemic effects | no qualitative or quantitative differences | loss of α-SMA | not down-regulated | marked irregularities | increased | dramatic dissecting aortic aneurysms | increasing | blocked | little effect | 2 | 5 | 3 | 6 | not present | – | – | – |
| TGFβ1: transforming growth factor-β1, regulator of scarring used to treat HS cells [reference compound] | – | – | – | – | – | increased | – | increasing | – | – | – | – | – | – | – | 5 | 10 | 16 |
